Measurements taken from paper doi:10.1101/2025.01.17.633618, “Systematic Determination of the Impact of Structural Edits on Peptide Accumulation into Mycobacteria” (bioRxiv, 2025).
Where two headings read alike, the source gives them in different places. Bridge positions count the residues as written; N and C are the ends. Square brackets hold non-standard residues; d marks the D form. Peptide text beside a SMILES is read from it. * marks the point of attachment. Lys(N3) = [N-]=[N+]=NCCCC[C@H](N)C(=O)O; Azidoacetyl = [N-]=[N+]=NCC(=O)*; NMeF = CN[C@@H](Cc1ccccc1)C(=O)O; NMeL = CN[C@@H](CC(C)C)C(=O)O

Experiments:
[1] = system: Mycobacterium smegmatis strain mc2155 (Msm)
Serum stability assay = format: in vitro ADME; settings: mouse serum, 37 °C, 1.0 mM peptide; time points 0, 15, 30, 60 min; RP-HPLC (C8), AUC normalized to internal standard Fmoc-L-phenylalanine
Experimental: was added to the system. The systems were prepared using the CHARMM scripts provided by CHARMM-GUI.4 The CHARMM36m force field5 was employed for the MD simulations. After energy minimization and 500 ps equilibration, a 100 ns production run was performed. All production MD simulations were performed for the NPT ensemble at 303.15 K and 1 atm using NAMD3. Long-range electrostatic interactions were treated using the particle mesh Ewald (PME) method 6 while Lennard-Jones (LJ) interactions were managed with a force-based switching function applied between 10 Å and 12 Å. […] Hydrogen bonds between different residues within the same peptide were analyzed using the last 50 ns of the simulation.
Serum stability assay. Time course degradation in mouse serum was evaluated for peptides Lin0, Cyc0, Nmet0 and Nmet9. […]
The samples were then centrifuged at 21,000×g for 5 min. […] 110 μL of the filtrate was then analyzed using Phenomenex Luna 5 µm C8(2) on RP-HPLC; gradient elution in H2O/CH3CN with 0.1% TFA at 1 mL/min. […]
Minimum inhibitory concentration (MIC) assay. […] MIC values were determined both visually and readings of OD (wells OD < 0.1) from a Biotek Synergy H1 microplate reader at 600 nm.

SMILES: CC(C)C[C@H](NC(=O)[C@H](CCCCN)NC(=O)CN=[N+]=[N-])C(=O)N[C@@H](CCCCN)C(=O)N(C)[C@@H](CC(C)C)C(=O)N(C)[C@@H](Cc1ccccc1)C(N)=O [Nmet2] (Azidoacetyl-KLK[NMeL][NMeF]-NH2)
- apparent accumulation across the mycomembrane in Msm [1]: increase was even more pronounced

SMILES: CC(C)C[C@@H]1NC(=O)[C@H](CCCCN=[N+]=[N-])NC(=O)CSC[C@@H](C(=O)N[C@@H](Cc2ccccc2)C(N)=O)NC(=O)[C@H](CCCCN)NC(=O)[C@H](CO)NC1=O [Cyc0] ({CH2CO}-[Lys(N3)]LSKCF-NH2; thioether N-5)
- apparent accumulation across the mycomembrane in Msm ([1]; PAC-MAN, 50 μM compound, 2 h, 37 °C, chase 50 μM Fl-az 1 h, flow cytometry, mean ± SD n = 3): better accumulation than any other member of this macrocyclic sub-library

SMILES: CC(=O)N[C@@H](CCCCN=[N+]=[N-])C(=O)N[C@@H](CC(C)C)C(=O)N[C@@H](CO)C(=O)N[C@@H](CCCCN)C(=O)N[C@@H](CO)C(=O)N[C@@H](Cc1ccccc1)C(N)=O [Lin0] (Ac-[Lys(N3)]LSKSF-NH2)
- time to full degradation in serum (Serum stability assay): ≤ 1 h
